Experimental data published in ChEMBL document CHEMBL5634100, “Novel spiro[pyrrolidine-2,3'-quinoline]-2'-one derivatives containing piperazine fragment as potential chitin synthase inhibitors and antifungal agents: Design, synthesis and biological evaluation” (Eur J Med Chem, 2023).
≈ marks a conversion by molar mass, not a printed value.

What was measured:
Aspergillus flavus [1] = assay: Antimicrobial activity against Aspergillus flavus ATCC 16870 incubated for 24 hrs by two fold serial dilution method; format: functional
Cryptococcus neoformans [2] = assay: Additive antimicrobial activity against Cryptococcus neoformans ATCC 32719 assessed as fractional inhibitory concentration index incubated for 24 hrs in presence of fluconazole by checkerboard method; format: functional
Candida albicans [3] = assay: Antimicrobial activity against Candida albicans ATCC 76615 assessed as inhibition of cell wall synthesis in presence of sorbitol; format: functional
Candida albicans [4] = assay: Antimicrobial activity against Candida albicans ATCC 76615 incubated for 24 hrs in presence of fluconazole by checkerboard method; format: functional
Aspergillus fumigatus [5] = assay: Antimicrobial activity against Aspergillus fumigatus GIMCC 3.19 incubated for 24 hrs in presence of fluconazole by checkerboard method; format: functional
Aspergillus flavus [6] = assay: Antimicrobial activity against Fluconazole-resistant Aspergillus flavus ATCC 16870R incubated for 24 hrs by two fold serial dilution method; format: functional
Aspergillus flavus [7] = assay: Antimicrobial activity against Aspergillus flavus ATCC 16870 incubated for 24 hrs in presence of fluconazole by checkerboard method; format: functional
Aspergillus fumigatus [8] = assay: Synergistic antimicrobial activity against Aspergillus fumigatus GIMCC 3.19 assessed as fractional inhibitory concentration index incubated for 24 hrs in presence of polyoxin B by checkerboard method; format: functional
Candida albicans [9] = assay: Antimicrobial activity against Candida albicans ATCC 76615 incubated for 24 hrs in presence of polyoxin B by checkerboard method; format: functional
Candida albicans [10] = assay: Synergistic antimicrobial activity against Candida albicans ATCC 76615 assessed as fractional inhibitory concentration index incubated for 24 hrs in presence of polyoxin B by checkerboard method; format: functional
[11] = Inhibition of Candida tropicalis ATCC 750 chitin synthase using UDP-GlcNAc as substrate by TMB based microplate analyzer
Candida albicans [12] = assay: Antimicrobial activity against fluconazole-resistant Candida albicans ATCC 76615R incubated for 24 hrs by two fold serial dilution method; format: functional
Cryptococcus neoformans [13] = assay: Antimicrobial activity against Cryptococcus neoformans ATCC 32719 assessed as inhibition of cell wall synthesis in presence of sorbitol; format: functional
Aspergillus fumigatus [14] = assay: Antimicrobial activity against Aspergillus fumigatus GIMCC 3.19 incubated for 24 hrs by two fold serial dilution method; format: functional
Candida albicans [15] = assay: Synergistic antimicrobial activity against Candida albicans ATCC 76615 assessed as fractional inhibitory concentration index incubated for 24 hrs in presence of fluconazole by checkerboard method; format: functional
Aspergillus fumigatus [16] = assay: Antimicrobial activity against Fluconazole-resistant Aspergillus fumigatus GIMCC 3.19R incubated for 24 hrs by two fold serial dilution method; format: functional
Aspergillus fumigatus [17] = assay: Antimicrobial activity against Aspergillus fumigatus GIMCC 3.19 assessed as inhibition of cell wall synthesis in presence of sorbitol; format: functional
Cryptococcus neoformans [18] = assay: Antimicrobial activity against Cryptococcus neoformans ATCC 32719 incubated for 24 hrs by two fold serial dilution method; format: functional
Aspergillus fumigatus [19] = assay: Synergistic antimicrobial activity against Aspergillus fumigatus GIMCC 3.19 assessed as fractional inhibitory concentration index incubated for 24 hrs in presence of fluconazole by checkerboard method; format: functional
Candida albicans [20] = assay: Antimicrobial activity against Candida albicans ATCC 76615 incubated for 24 hrs by two fold serial dilution method; format: functional
Aspergillus flavus [21] = assay: Antimicrobial activity against Aspergillus flavus ATCC 16870 assessed as inhibition of cell wall synthesis in presence of sorbitol; format: functional
Cryptococcus neoformans [22] = assay: Antimicrobial activity against Fluconazole-resistant Cryptococcus neoformans ATCC 32719R incubated for 24 hrs by two fold serial dilution method; format: functional
Aspergillus flavus [23] = assay: Synergistic antimicrobial activity against Aspergillus flavus ATCC 16870 assessed as fractional inhibitory concentration index incubated for 24 hrs in presence of polyoxin B by checkerboard method; format: functional
Candida albicans [24] = assay: Antimicrobial activity against micafungin-resistant Candida albicans ATCC 76615R incubated for 24 hrs by two fold serial dilution method; format: functional
Cryptococcus neoformans [25] = assay: Antimicrobial activity against Cryptococcus neoformans ATCC 32719 incubated for 24 hrs in presence of polyoxin B by checkerboard method; format: functional
Candida tropicalis = assay: Inhibition of Candida tropicalis ATCC 750 chitin synthase using UDP-GlcNAc as substrate at 300 ug/ml by TMB based microplate analyzer relative to control; settings: dose 300.0 µg/ml
Cryptococcus neoformans [26] = assay: Additive antimicrobial activity against Cryptococcus neoformans ATCC 32719 assessed as fractional inhibitory concentration index incubated for 24 hrs in presence of polyoxin B by checkerboard method; format: functional
Aspergillus flavus [27] = assay: Antimicrobial activity against Aspergillus flavus ATCC 16870 incubated for 24 hrs in presence of polyoxin B by checkerboard method; format: functional
Aspergillus fumigatus [28] = assay: Antimicrobial activity against Aspergillus fumigatus GIMCC 3.19 incubated for 24 hrs in presence of polyoxin B by checkerboard method; format: functional
Aspergillus flavus [29] = assay: Synergistic antimicrobial activity against Aspergillus flavus ATCC 16870 assessed as fractional inhibitory concentration index incubated for 24 hrs in presence of fluconazole by checkerboard method; format: functional
Cryptococcus neoformans [30] = assay: Antimicrobial activity against Cryptococcus neoformans ATCC 32719 incubated for 24 hrs in presence of fluconazole by checkerboard method; format: functional
Aspergillus flavus [31] = assay: Additive antimicrobial activity against Aspergillus flavus ATCC 16870 assessed as fractional inhibitory concentration index incubated for 24 hrs in presence of fluconazole by checkerboard method; format: functional
Candida albicans [32] = assay: Additive antimicrobial activity against Candida albicans ATCC 76615 assessed as fractional inhibitory concentration index incubated for 24 hrs in presence of polyoxin B by checkerboard method; format: functional
Aspergillus flavus [33] = assay: Additive antimicrobial activity against Aspergillus flavus ATCC 16870 assessed as fractional inhibitory concentration index incubated for 24 hrs in presence of polyoxin B by checkerboard method; format: functional

Question: Which MIC (Aspergillus flavus [1]) does the source give for `O=C(c1c(F)cccc1F)N1CCN(CC(=O)N2CCCC23Cc2ccccc2NC3=O)CC1` (configuration not stated) here?
Answer: 2 µg/mL (≈ 4.27 µM)

Question: And the “fractional inhibitory concentration index (FICI)” value (Cryptococcus neoformans [2])?
Answer: 1.125

Question: And the MIC (Candida albicans [3])?
Answer: 128 µg/mL

Question: What about the MIC (Candida albicans [4]) of the same compound?
Answer: 1 µg/mL

Question: And the MIC (Aspergillus fumigatus [5])?
Answer: 2 µg/mL

Question: And the MIC (Aspergillus flavus [6])?
Answer: 64 µg/mL (≈ 137 µM)

Question: What about the MIC (Aspergillus flavus [7]) of the same compound?
Answer: 4 µg/mL

Question: And the “fractional inhibitory concentration index (FICI)” value (Aspergillus fumigatus [8])?
Answer: 0.75

Question: What about the MIC (Candida albicans [9]) of the same compound?
Answer: 1 µg/mL

Question: And the “fractional inhibitory concentration index (FICI)” value (Candida albicans [10])?
Answer: 0.625

Question: What about the IC50 [11] of the same compound?
Answer: 110 µM

Question: And the MIC (Candida albicans [12])?
Answer: 64 µg/mL (≈ 137 µM)

Question: What about the MIC (Cryptococcus neoformans [13]) of the same compound?
Answer: 256 µg/mL

Question: And the MIC (Aspergillus fumigatus [14])?
Answer: 0.5 µg/mL (≈ 1.07 µM)

Question: And the “fractional inhibitory concentration index (FICI)” value (Candida albicans [15])?
Answer: 0.75

Question: And the MIC (Aspergillus fumigatus [16])?
Answer: 64 µg/mL (≈ 137 µM)

Question: And the MIC (Aspergillus fumigatus [17])?
Answer: 64 µg/mL

Question: And the MIC (Cryptococcus neoformans [18])?
Answer: 8 µg/mL (≈ 17.1 µM)

Question: And the “fractional inhibitory concentration index (FICI)” value (Aspergillus fumigatus [19])?
Answer: 0.625

Question: And the MIC (Candida albicans [20])?
Answer: 1 µg/mL (≈ 2.13 µM)

Question: What about the MIC (Aspergillus flavus [21]) of the same compound?
Answer: 256 µg/mL

Question: What about the MIC (Cryptococcus neoformans [22]) of the same compound?
Answer: 128 µg/mL (≈ 273 µM)

Question: And the “fractional inhibitory concentration index (FICI)” value (Aspergillus flavus [23])?
Answer: 0.375

Question: What about the MIC (Candida albicans [24]) of the same compound?
Answer: 64 µg/mL (≈ 137 µM)

Question: What about the MIC (Cryptococcus neoformans [25]) of the same compound?
Answer: 2 µg/mL

Question: What about the inhibition (Candida tropicalis) of the same compound?
Answer: 83.4%

Question: And the “fractional inhibitory concentration index (FICI)” value (Cryptococcus neoformans [26])?
Answer: 1.125

Question: What about the MIC (Aspergillus flavus [27]) of the same compound?
Answer: 1 µg/mL

Question: What about the MIC (Aspergillus fumigatus [28]) of the same compound?
Answer: 2 µg/mL

Question: What about the “fractional inhibitory concentration index (FICI)” value (Aspergillus flavus [29]) of the same compound?
Answer: 0.75

Question: What about the MIC (Cryptococcus neoformans [30]) of the same compound?
Answer: 1 µg/mL

Question: For `O=C(c1cccc(F)c1)N1CCN(CC(=O)N2CCCC23Cc2ccccc2NC3=O)CC1` (configuration not stated), which MIC (Aspergillus flavus [1]) is on record?
Answer: 4 µg/mL (≈ 8.88 µM)

Question: What about the “fractional inhibitory concentration index (FICI)” value (Cryptococcus neoformans [2]) of the same compound?
Answer: 1.25

Question: And the MIC (Candida albicans [3])?
Answer: 64 µg/mL

Question: What about the MIC (Candida albicans [4]) of the same compound?
Answer: 1 µg/mL

Question: And the MIC (Aspergillus fumigatus [5])?
Answer: 1 µg/mL

Question: And the MIC (Aspergillus flavus [6])?
Answer: 32 µg/mL (≈ 71 µM)

Question: And the MIC (Aspergillus flavus [7])?
Answer: 2 µg/mL

Question: And the “fractional inhibitory concentration index (FICI)” value (Aspergillus flavus [31])?
Answer: 1.25

Question: What about the “fractional inhibitory concentration index (FICI)” value (Candida albicans [32]) of the same compound?
Answer: 1.063

Question: And the “fractional inhibitory concentration index (FICI)” value (Aspergillus fumigatus [8])?
Answer: 0.625

Question: And the MIC (Candida albicans [9])?
Answer: 0.5 µg/mL

Question: And the IC50 [11]?
Answer: 140 µM

Question: And the MIC (Candida albicans [12])?
Answer: 32 µg/mL (≈ 71 µM)

Question: And the MIC (Cryptococcus neoformans [13])?
Answer: 64 µg/mL

Question: What about the MIC (Aspergillus fumigatus [14]) of the same compound?
Answer: 1 µg/mL (≈ 2.22 µM)

Question: What about the “fractional inhibitory concentration index (FICI)” value (Candida albicans [15]) of the same compound?
Answer: 0.75

Question: What about the MIC (Aspergillus fumigatus [16]) of the same compound?
Answer: 32 µg/mL (≈ 71 µM)

Question: What about the MIC (Aspergillus fumigatus [17]) of the same compound?
Answer: 128 µg/mL

Question: And the MIC (Cryptococcus neoformans [18])?
Answer: 8 µg/mL (≈ 17.8 µM)

Question: And the “fractional inhibitory concentration index (FICI)” value (Aspergillus fumigatus [19])?
Answer: 0.5

Question: And the MIC (Candida albicans [20])?
Answer: 1 µg/mL (≈ 2.22 µM)

Question: What about the MIC (Aspergillus flavus [21]) of the same compound?
Answer: 64 µg/mL

Question: What about the MIC (Cryptococcus neoformans [22]) of the same compound?
Answer: 32 µg/mL (≈ 71 µM)

Question: What about the MIC (Candida albicans [24]) of the same compound?
Answer: 128 µg/mL (≈ 284 µM)

Question: And the “fractional inhibitory concentration index (FICI)” value (Aspergillus flavus [33])?
Answer: 1.25

Question: And the MIC (Cryptococcus neoformans [25])?
Answer: 2 µg/mL

Question: What about the inhibition (Candida tropicalis) of the same compound?
Answer: 76.8%

Question: And the “fractional inhibitory concentration index (FICI)” value (Cryptococcus neoformans [26])?
Answer: 1.125

Question: What about the MIC (Aspergillus flavus [27]) of the same compound?
Answer: 2 µg/mL

Question: What about the MIC (Aspergillus fumigatus [28]) of the same compound?
Answer: 4 µg/mL

Question: And the MIC (Cryptococcus neoformans [30])?
Answer: 2 µg/mL
